ChEMBL document CHEMBL3045723, “Synthesis of novel 3-(5-sulfanyl-1,3,4-oxadiazol-2-yl)-2H-chromen-2-one condensed s-triazinyl piperazines and piperidines as antimicrobial agents” (2012)
Values after ≈ are worked out from the molar mass of the structure shown.

Columns and labels:
Format in all cases: functional
Candida albicans [1] = experiment: Antifungal activity against Candida albicans MTCC 183 after 24 hr by agar disk diffusion test; also: test concentration or dose not given here
Bacillus cereus [2] = experiment: Antibacterial activity against Bacillus cereus MTCC 619 after 24 hr; conditions: MTCC 619, 24 h
Staphylococcus aureus [3] = experiment: Antibacterial activity against Staphylococcus aureus MTCC 96 after 24 hr; conditions: MTCC 96, 24 h
Candida albicans [4] = experiment: Antifungal activity against Candida albicans MTCC 183 after 48 hr; conditions: MTCC 183, 48 h
Salmonella typhi [5] = experiment: Antibacterial activity against Salmonella enterica subsp. enterica serovar Typhi MTCC 733 after 24 hr by agar disk diffusion test
Klebsiella pneumoniae [6] = experiment: Antibacterial activity against Klebsiella pneumoniae MTCC 109 after 24 hr; conditions: MTCC 109, 24 h
Aspergillus niger [7] = experiment: Antifungal activity against Aspergillus niger MTCC 282 after 24 hr by agar disk diffusion test; also: test concentration or dose not given here
Escherichia coli [8] = experiment: Antibacterial activity against Escherichia coli MTCC 739 after 24 hr by agar disk diffusion test
Escherichia coli [9] = experiment: Antibacterial activity against Escherichia coli MTCC 739 after 24 hr; conditions: MTCC 739, 24 h
Bacillus cereus [10] = experiment: Antibacterial activity against Bacillus cereus MTCC 619 after 24 hr by agar disk diffusion test; also: test concentration or dose not given here
Proteus vulgaris [11] = experiment: Antibacterial activity against Proteus vulgaris MTCC 1771 after 24 hr by agar disk diffusion test; also: test concentration or dose not given here
Proteus vulgaris [12] = experiment: Antibacterial activity against Proteus vulgaris MTCC 1771 after 24 hr; conditions: MTCC 1771, 24 h
Pseudomonas aeruginosa [13] = experiment: Antibacterial activity against Pseudomonas aeruginosa MTCC 741
Shigella flexneri [14] = experiment: Antibacterial activity against Shigella flexneri after 24 hr
Aspergillus niger [15] = experiment: Antifungal activity against Aspergillus niger MTCC 282 after 48 hr; conditions: MTCC 282, 48 h
Staphylococcus aureus [16] = experiment: Antibacterial activity against Staphylococcus aureus MTCC 96 after 24 hr by agar disk diffusion test
Klebsiella pneumoniae [17] = experiment: Antibacterial activity against Klebsiella pneumoniae MTCC 109 after 24 hr by agar disk diffusion test
Salmonella typhi [18] = experiment: Antibacterial activity against Salmonella enterica subsp. enterica serovar Typhi MTCC 733 after 24 hr; conditions: MTCC 733, 24 h
Pseudomonas aeruginosa [19] = experiment: Antibacterial activity against Pseudomonas aeruginosa MTCC 741 after 24 hr by agar disk diffusion test
Shigella flexneri [20] = experiment: Antibacterial activity against Shigella flexneri after 24 hr by agar disk diffusion test; also: test concentration or dose not given here

Row | SMILES | inhibition zone (IZ) (Candida albicans [1]) [mm] | MIC (Bacillus cereus [2]) [µg/mL] | MIC (Staphylococcus aureus [3]) [µg/mL] | MIC (Candida albicans [4]) [µg/mL] | inhibition zone (IZ) (Salmonella typhi [5]) [mm] | MIC (Klebsiella pneumoniae [6]) [µg/mL] | inhibition zone (IZ) (Aspergillus niger [7]) [mm] | inhibition zone (IZ) (Escherichia coli [8]) [mm] | MIC (Escherichia coli [9]) [µg/mL] | inhibition zone (IZ) (Bacillus cereus [10]) [mm] | inhibition zone (IZ) (Proteus vulgaris [11]) [mm] | MIC (Proteus vulgaris [12]) [µg/mL] | MIC (Pseudomonas aeruginosa [13]) [µg/mL] | MIC (Shigella flexneri [14]) [µg/mL] | MIC (Aspergillus niger [15]) [µg/mL] | inhibition zone (IZ) (Staphylococcus aureus [16]) [mm] | inhibition zone (IZ) (Klebsiella pneumoniae [17]) [mm] | MIC (Salmonella typhi [18]) [µg/mL] | inhibition zone (IZ) (Pseudomonas aeruginosa [19]) [mm] | inhibition zone (IZ) (Shigella flexneri [20]) [mm]
1 | O=c1oc2ccccc2cc1-c1nnc(Sc2nc(Oc3cccc4cccnc34)nc(N3CCN(c4cccc(Cl)c4Cl)CC3)n2)o1 | 21 | 25 (≈ 35.8 µM) | 50 (≈ 71.7 µM) | 50 (≈ 71.7 µM) | 19 | 25 (≈ 35.8 µM) | 23 | 24 | 25 (≈ 35.8 µM) | 22 | 17 | 100 (≈ 143 µM) | 50 (≈ 71.7 µM) | 100 (≈ 143 µM) | 25 (≈ 35.8 µM) | 21 | 21 | 100 (≈ 143 µM) | 20 | 21
2 | O=c1oc2ccccc2cc1-c1nnc(Sc2nc(Oc3cccc4cccnc34)nc(N3CCCCC3)n2)o1 | <10 | 100 (≈ 181 µM) | 100 (≈ 181 µM) | 100 (≈ 181 µM) | 14 | 50 (≈ 90.6 µM) | <10 | <10 | 100 (≈ 181 µM) | <10 | <10 | 100 (≈ 181 µM) | 100 (≈ 181 µM) | 100 (≈ 181 µM) | 100 (≈ 181 µM) | 11 | 20 | 100 (≈ 181 µM) | 15 | <10
3 | O=c1oc2ccccc2cc1-c1nnc(Sc2nc(Oc3cccc4cccnc34)nc(N3CCOCC3)n2)o1 | <10 | 100 (≈ 181 µM) | 100 (≈ 181 µM) | 100 (≈ 181 µM) | 16 | 25 (≈ 45.2 µM) | 12 | <10 | 100 (≈ 181 µM) | 15 | <10 | 100 (≈ 181 µM) | 100 (≈ 181 µM) | 100 (≈ 181 µM) | 100 (≈ 181 µM) | 14 | 22 | 100 (≈ 181 µM) | 16 | 11
4 | O=c1oc2ccccc2cc1-c1nnc(Sc2nc(Oc3cccc4cccnc34)nc(N3CCN(c4ccccc4)CC3)n2)o1 | <10 | 100 (≈ 159 µM) | 100 (≈ 159 µM) | 100 (≈ 159 µM) | <10 | 100 (≈ 159 µM) | <10 | <10 | 100 (≈ 159 µM) | 12 | 15 | 100 (≈ 159 µM) | 100 (≈ 159 µM) | 100 (≈ 159 µM) | 100 (≈ 159 µM) | <10 | 11 | 100 (≈ 159 µM) | 13 | <10
5 | CC(=O)N1CCN(c2nc(Oc3cccc4cccnc34)nc(Sc3nnc(-c4cc5ccccc5oc4=O)o3)n2)CC1 | 13 | 25 (≈ 42 µM) | 50 (≈ 84.1 µM) | 100 (≈ 168 µM) | 22 | 100 (≈ 168 µM) | 16 | 15 | 100 (≈ 168 µM) | 22 | 18 | 100 (≈ 168 µM) | 12.5 (≈ 21 µM) | 25 (≈ 42 µM) | 100 (≈ 168 µM) | 20 | 13 | 12.5 (≈ 21 µM) | 23 | 23
6 | CC(C)N1CCN(c2nc(Oc3cccc4cccnc34)nc(Sc3nnc(-c4cc5ccccc5oc4=O)o3)n2)CC1 | 11 | 100 (≈ 168 µM) | 100 (≈ 168 µM) | 100 (≈ 168 µM) | 20 | 100 (≈ 168 µM) | 12 | 16 | 100 (≈ 168 µM) | 16 | 15 | 100 (≈ 168 µM) | 25 (≈ 42 µM) | 25 (≈ 42 µM) | 100 (≈ 168 µM) | 19 | 14 | 50 (≈ 84.1 µM) | 21 | 24
7 | O=c1oc2ccccc2cc1-c1nnc(Sc2nc(Oc3cccc4cccnc34)nc(N3CCN(c4ccccn4)CC3)n2)o1 | 17 | 50 (≈ 79.4 µM) | 50 (≈ 79.4 µM) | 100 (≈ 159 µM) | 14 | 25 (≈ 39.7 µM) | 14 | 15 | 100 (≈ 159 µM) | 21 | 14 | 100 (≈ 159 µM) | 100 (≈ 159 µM) | 50 (≈ 79.4 µM) | 100 (≈ 159 µM) | 21 | 22 | 100 (≈ 159 µM) | 18 | 22
8 | O=c1oc2ccccc2cc1-c1nnc(Sc2nc(Oc3cccc4cccnc34)nc(N3CCN(c4ncccn4)CC3)n2)o1 | 17 | 25 (≈ 39.6 µM) | 50 (≈ 79.3 µM) | 100 (≈ 159 µM) | 18 | 25 (≈ 39.6 µM) | 16 | 19 | 100 (≈ 159 µM) | 22 | 16 | 100 (≈ 159 µM) | 100 (≈ 159 µM) | 50 (≈ 79.3 µM) | 100 (≈ 159 µM) | 21 | 22 | 100 (≈ 159 µM) | 18 | 22
9 | O=c1oc2ccccc2cc1-c1nnc(Sc2nc(Oc3cccc4cccnc34)nc(N3CCN(Cc4ccccc4)CC3)n2)o1 | <10 | 100 (≈ 156 µM) | 100 (≈ 156 µM) | 100 (≈ 156 µM) | <10 | 100 (≈ 156 µM) | <10 | 16 | 100 (≈ 156 µM) | 17 | <10 | 100 (≈ 156 µM) | 100 (≈ 156 µM) | 100 (≈ 156 µM) | 100 (≈ 156 µM) | 13 | <10 | 100 (≈ 156 µM) | 19 | 13
